Test results from patent US20210009541A1, “FUNGICIDAL OXADIAZOLES” (Bayer Aktiengesellschaft, priority 2018, published 2021).
Marks after values point to notes of the source that are not given here.

How the values were obtained:
[1] = LogP by HPLC on reversed phase columns (EEC directive 79/831 Annex V.A8); format: physicochemical; conditions: for chromatographic logP: reversed phase HPLC column, method [a]: LC-UV, acidic range, 0.1% formic acid in water and acetonitrile as eluent
Protocol: [table] If more than one Log P value is available within the same method, all the values are given and separated by “+”. […] Lambda-max-values were determined using UV-spectra from 200 nm to 400 nm and the peak values of the chromatographic signals.

[2] = tested on: Phakosporra pachirrhizi; assay: Example D: fungicidal activity against Phakosporra pachirrhizi (spore germination, 96-well imaging); format: cell-based; conditions: 30 ppm of active ingredient; wild-type spores, 4 hours at 21° C.; read-out: efficacy (inhibition of the fungal germination)
Protocol: Example D: Fungicidal Activity Against Phakosporra pachirrhizi
Cryo-conserved wild-type spores of the biotroph Phakosporra pachirrhizi are humidified in dedicated chamber overnight at 18° C. in the dark. The next day, a solution of spores at 7×10^3 sp/ml is prepared in a water based growth medium (DH2O+0.2 mM MOPS at pH 7+0.01% Tween 20) and spores are distributed in a 96-MTPS (final volume of 200 μL per well) thanks to a dispenser robot. Each molecule is tested at 10 doses (from 30 to 0.002 ppm final concentration) and accordingly 1.2 μL of each dilution is transferred in dedicated well to end-up with a final concentration of 0.6% DMSO. Wild-type spores and molecules are incubated for 4 hours at 21° C., and 6 images par well are then acquired with Transmitted Light images (Image Xpress Micro microscope, Molecular Devices, Objective 10λ, 6 images per well). Detection and quantification of the number of germinated spores per image is performed with a dedicated in-house developed algorithm (MetaXpress software, Molecular Devices).

[3] = tested on: Colletotrichum lindemuthianum; assay: Example E: Colletotrichum lindemuthianum in vitro cell test; format: cell-based; conditions: 144 h, 20 ppm of active ingredient, liquid culture, 6 days incubation, read-out: efficacy (inhibition of fungal growth)
Protocol: Example E: Colletotrichum lindemuthianum In Vitro Cell Test
• Solvent: DMSO Culture medium: 14.6 g anhydrous D-glucose (VWR), 7.1 g Mycological Peptone (Oxoid), 1.4 g granulated Yeast Extract (Merck), QSP 1 liter • Inoculum: spores suspension
Active ingredients were solubilized in DMSO and the solution used to prepare the required range of concentrations. The final concentration of DMSO used in the assay was 1%.
A spore suspension of C. lindemuthianum was prepared and diluted to the desired spore density.
The active ingredients were evaluated for their ability to inhibit spores germination and mycelium growth in liquid culture assay. The compounds were added in the desired concentration to the culture medium with spores. After 6 days incubation, fungi-toxicity of compounds was determined by spectrometric measurement of mycelium growth. Inhibition of fungal growth was determined by comparing the absorbance values in wells containing the active ingredient with the absorbance in control wells without active ingredient.

FC(F)(F)c1nc(-c2ccc3[nH]ncc3c2)no1 [Compound I-005, 5-[5-(Trifluoromethyl)-1,2,4-oxadiazol-3-yl]-1H-indazole]
chromatographic logP [1]: 2.68 | inhibition at 30 ppm [2]: 90 to 100% | inhibition at 20 ppm [3]: 90 to 100%

COCCn1ncc2cc(-c3noc(C(F)(F)F)n3)ccc21 [Compound I-013, 1-(2-Methoxyethyl)-5-[5-(trifluoromethyl)-1,2,4-oxadiazol-3-yl]-1H-indazole]
chromatographic logP [1]: 3.31 | inhibition at 30 ppm [2]: 80 to 89% | inhibition at 20 ppm [3]: 80 to 89%

COCCn1cc2cc(-c3noc(C(F)(F)F)n3)ccc2n1 [Compound I-014, 2-(2-Methoxyethyl)-5-[5-(trifluoromethyl)-1,2,4-oxadiazol-3-yl]-2H-indazole]
chromatographic logP [1]: 2.96 | inhibition at 30 ppm [2]: 70 to 79% | inhibition at 20 ppm [3]: 80 to 89%

CON(C(C)=O)C1CCCc2cc(-c3noc(C(F)(F)F)n3)ccc21 (centres unmarked) [Compound I-020, N-Methoxy-N-{6-[5-(trifluoromethyl)-1,2,4-oxadiazol-3-yl]-1,2,3,4-tetrahydronaphthalen-1-yl}acetamide]
chromatographic logP [1]: 3.79 | inhibition at 30 ppm [2]: 70 to 79% | inhibition at 20 ppm [3]: 90 to 100%

FC(F)(F)c1nc(-c2ccc3c(cnn3Cc3ccccc3)c2)no1 [Compound I-009]
LogP [1]: 4.39^[a]

O=C(O)c1cn2cc(-c3noc(C(F)(F)F)n3)ccc2n1 [Compound I-040]
LogP [1]: 1.41^[a]
